Source: paper PMC12268683, “A global perspective on autoinducer-2-mediated cell communication in prokaryotes” (iScience, 2025)

Columns and labels:
[1] = target: T1, LsrB receptor of S. coelicolor A3(2) (first of two, locus not given); test: isothermal titration calorimetry; format: binding, Streptomyces coelicolor; settings: 25 °C, 50 mM Tris, 150 mM NaCl, 10% glycerol, pH 8.0; one-site model; no borate added; which of the two LsrB not given
T1 construct: His6-tagged, pET-28a, E. coli BL21(DE3) or its luxS mutant, Ni-NTA
Text: isothermal titration calorimetry on LsrB receptor of S. coelicolor A3(2) (first of two, locus not printed) | the LsrB receptors bound AI-2 with high affinity

[2] = target: T2, LsrB receptor of S. coelicolor A3(2) (second of two, locus not given); test: isothermal titration calorimetry; format: binding, Streptomyces coelicolor; settings: 25 °C, 50 mM Tris, 150 mM NaCl, 10% glycerol, pH 8.0; one-site model; no borate added; which of the two LsrB not given
T2 construct: His6-tagged, pET-28a, E. coli BL21(DE3) or its luxS mutant, Ni-NTA
Text: isothermal titration calorimetry on LsrB receptor of S. coelicolor A3(2) (second of two, locus not printed) | the LsrB receptors bound AI-2 with high affinity

Kd [1]: 175 ± 30 nM | Kd [2]: 101 ± 10 nM
SMILES: CC(=O)C(=O)[C@@H](O)CO [DPD]
